Data reported in patent publication US12583826B2, “[(1,5-diphenyl-1H-1,2,4-triazol-3-yl)oxy]acetic acid derivatives and salts thereof, crop protection compositions comprising them, methods for producing them and use thereof as safeners” (Bayer Aktiengesellschaft, priority 2019, dated 2026).

Legend:
Format in all cases: in vivo
[1] = system: summer barley (HORVS; cv. Montoya); assay: Relative action (efficacy code): reduction of damage by mesosulfuron-methyl on summer barley; set-up: key: 0: no reduction in damage (appearance corresponding to the herbicide control); 1: slight reduction in damage; 2: distinct reduction in damage; 3: significant reduction in damage; 4: complete reduction in damage (appearance corresponding to the untreated control); details: then mesosulfuron-methyl 40-60 g/ha, visual, 9-13 days after application
Protocol: 2.4 Relative Action of Selected Compounds of the Invention Using the Example of Reduction of Damage by Mesosulfuron-Methyl on Summer Barley (HORVS) The seeds of the crop plants to be treated are laid out in sandy loam in plastic pots (diameter ˜4 cm), covered with soil and grown in a greenhouse under good conditions for germination and growth. The trial plants were treated at the early leaf stage (BBCH10—BBCH12). In the course of this, the inventive compounds of the general formula (I) formulated in the form of wettable powders (WP) were sprayed onto the above-ground parts of the plants as an aqueous suspension with a water application rate corresponding to 800 l/ha with addition of wetting agent (e.g. 0.2% Genapol-LRO or 0.2% Mero) in the specified dose. This was followed by the application of the herbicide. For this purpose, mesosulfuron-methyl, formulated in the form of water-dispersible granules (WG), was sprayed onto the above-ground parts of the plants in the form of an aqueous dispersion with a water application rate corresponding to 800 l/ha with addition of wetting agent (e.g. 0.2% Genapol-LRC) or 1 l/ha Biopower) in a dose of 40-60 g/ha. The dose of the herbicide was chosen here such that it causes visually apparent damage (min. 30%, max. 75%) compared to untreated crop plants at the evaluation time on a control group of crop plants without safener treatment that were included in the same trial. After application, the plants were cultivated under good growth conditions in a greenhouse. 9-13 days after application, the efficacy of the test compounds was assessed visually. For this purpose, the appearance of the plants treated with the test compound and herbicide was compared to the corresponding herbicide controls (without safener; with clearly visible damage) and the untreated controls (without damage). The damage-reducing effect of the test compounds was expressed here separately for 2 repeats in graded efficacy codes according to the following scheme: • 0: no reduction in damage (appearance corresponding to the herbicide control) • 1: slight reduction in damage • 2: distinct reduction in damage • 3: significant reduction in damage • 4: complete reduction in damage (appearance corresponding to the untreated control) The trials show clear efficacy of the substances of the invention with regard to the reduction in damage to the summer barley crop plant (HORVS; cv. Montoya) caused by the herbicide mesosulfuron-methyl: […]

[2] = system: summer wheat (TRZAS; cv. Triso); assay: Relative action (efficacy code): reduction of damage by mesosulfuron-methyl on summer wheat; set-up: key: 0: no reduction in damage (appearance corresponding to the herbicide control); 1: slight reduction in damage; 2: distinct reduction in damage; 3: significant reduction in damage; 4: complete reduction in damage (appearance corresponding to the untreated control); details: then mesosulfuron-methyl 40-60 g/ha, visual, 9-13 days after application
Protocol: 2.3 Relative Action of Selected Compounds of the Invention Using the Example of Reduction of Damage by Mesosulfuron-Methyl on Summer Wheat (TRZAS) The seeds of the crop plants to be treated are laid out in sandy loam in plastic pots (diameter ˜4 cm), covered with soil and grown in a greenhouse under good conditions for germination and growth. The trial plants were treated at the early leaf stage (BBCH10—BBCH12). In the course of this, the inventive compounds of the general formula (I) formulated in the form of wettable powders (WP) were sprayed onto the above-ground parts of the plants as an aqueous suspension with a water application rate corresponding to 800 l/ha with addition of wetting agent (e.g. 0.2% Genapol-LRO or 0.2% Mero) in the specified dose. This was followed by the application of the herbicide. For this purpose, mesosulfuron-methyl, formulated in the form of water-dispersible granules (WG), was sprayed onto the above-ground parts of the plants in the form of an aqueous dispersion with a water application rate corresponding to 800 l/ha with addition of wetting agent (e.g. 0.2% Genapol-LRO or 1 l/ha Biopower) in a dose of 40-60 g/ha. The dose of the herbicide was chosen here such that it causes visually apparent damage (min. 30%, max. 75%) compared to untreated crop plants at the evaluation time on a control group of crop plants without safener treatment that were included in the same trial. After application, the plants were cultivated under good growth conditions in a greenhouse. 9-13 days after application, the efficacy of the test compounds was assessed visually. For this purpose, the appearance of the plants treated with the test compound and herbicide was compared to the corresponding herbicide controls (without safener; with clearly visible damage) and the untreated controls (without damage). The damage-reducing effect of the test compounds was expressed here in graded efficacy codes according to the following scheme: • 0: no reduction in damage (appearance corresponding to the herbicide control) • 1: slight reduction in damage • 2: distinct reduction in damage • 3: significant reduction in damage • 4: complete reduction in damage (appearance corresponding to the untreated control) The trials show clear efficacy of the substances of the invention with regard to the reduction in damage to the summer wheat crop plant (TRZAS; cv. Triso) caused by the herbicide mesosulfuron-methyl: […]

[3] = system: summer barley (HORVS; cv. Montoya); assay: Absolute action: reduction of damage by mesosulfuron-methyl on summer barley, greenhouse post-emergence; details: for Absolute reduction in damage (difference): mesosulfuron-methyl 20 g/ha, damage without minus with safener; for Herbicide damage with compound of the formula (I) (%): then mesosulfuron-methyl 20 g/ha, visual 0-100% scale, 14-21 days after application
Protocol: (§1) 2.2 Absolute Action of Selected Compounds of the Invention Using the Example of Reduction of Damage by Mesosulfuron-Methyl on Summer Barley (HORVS) The seeds of the crop plants to be treated are aid out in sandy loam in wood fiber or plastic pots (diameter ˜4 cm), covered with soil and grown in a greenhouse under good conditions for germination and growth. The trial plants were treated at the early leaf stage (BBCE10-BBCH12). In the course of this, the inventive compounds of the general formula (I) formulated in the form of wettable powders (WP) were sprayed onto the above-ground parts of the plants as an aqueous suspension with a water application rate corresponding to 800 l/ha with addition of wetting agent (e.g. 0.2% agrotin) in the specified dose. This was followed by the application of the herbicide. For this purpose, mesosulfuron-methyl, formulated in the form of water-dispersible granules (WG), was sprayed onto the above-ground parts of the plants in the form of an aqueous dispersion with a water application rate corresponding to 800 l/ha with addition of wetting agent (e.g. 0.2% agrotin) in a dose of 20 g/ha. The dose of the herbicide was chosen here such that it causes visually apparent damage (min. 30%, max. 75%) compared to untreated crop plants at the evaluation time on a control group of crop plants without safener treatment that were included in the same trial. After application, the plants were cultivated under good growth conditions in a greenhouse. The damage was visually assessed 14-21 days after application. The damage effect was assessed visually on a scale of 0-100% by comparison with untreated control plants, and averaged over 2-3 repeats per treatment. Examples: • 0%=no noticeable effect compared to the untreated plant • 20%=the treated plant population has 20% damage compared to the untreated control population (e.g.: growth height, leaf damage, etc.) • 100%=treated plants completely damaged/killed.

[4] = system: summer wheat (TRZAS; cv. Triso); assay: Absolute action: reduction of damage by mesosulfuron-methyl on summer wheat, greenhouse post-emergence; details: for Absolute reduction in herbicide damage (damage without safener minus damage with safener): mesosulfuron-methyl 20 g/ha; for Herbicide damage with compound of the formula (I): then mesosulfuron-methyl 20 g/ha, visual 0-100% scale, 14-21 days after application
Protocol: as §1, with “2.1” for “2.2”, “Wheat (TRZAS)” for “Barley (HORVS)”, “laid” for “aid”, “grow” for “grown”, “(BBCH10—BBCH12).” for “(BBCE10-BBCH12).”, “(e.g.” for “(e.g.:”

[5] = safener dose 100 (unit not given)
[6] = safener dose 500 (unit not given)

SMILES: O=C(O)COc1nc(-c2c(F)cccc2F)n(-c2ccc(Cl)cc2F)n1 [I.57-49]
- Efficacy of the safener (efficacy code) ([1]; safener 100 g/ha): 2
- Efficacy of the safener (efficacy code) ([1]; safener 500 g/ha): 2

SMILES: COCCOC(=O)COc1nc(-c2ccc(F)cc2F)n(-c2ccc(Cl)cc2F)n1 [I.67-49]
- Efficacy of the safener (efficacy code) [2, 5]: 2
- Efficacy of the safener (efficacy code) [2, 6]: 2
- Efficacy of the safener (efficacy code) ([1]; safener 100 g/ha): 2
- Efficacy of the safener (efficacy code) ([1]; safener 500 g/ha): 2

SMILES: O=C(COc1nc(-c2ccc(F)cc2F)n(-c2ccc(Cl)cc2F)n1)OCC1CCOC1 (centres unmarked) [I.63-49]
- Efficacy of the safener (efficacy code) [2, 5]: 2
- Efficacy of the safener (efficacy code) ([1]; safener 100 g/ha): 2

SMILES: CCCCOC(=O)COc1nc(-c2ccc(F)cc2F)n(-c2ccc(Cl)cc2F)n1 [I.66-49]
- Efficacy of the safener (efficacy code) [2, 5]: 2
- Efficacy of the safener (efficacy code) ([1]; safener 100 g/ha): 2

SMILES: O=C(O)COc1nc(-c2ccccc2)n(-c2c(F)cccc2F)n1 [I.3-43]
- Efficacy of the safener (efficacy code) [2, 5]: 2
- Efficacy of the safener (efficacy code) [2, 6]: 2
- Efficacy of the safener (efficacy code) ([1]; safener 100 g/ha): 2
- Efficacy of the safener (efficacy code) ([1]; safener 500 g/ha): 2

SMILES: CCOC(=O)COc1nc(-c2ccc(F)cc2F)n(-c2ccc(Cl)cc2F)n1 [I.41-49]
- Efficacy of the safener (efficacy code) [2, 5]: 2
- Efficacy of the safener (efficacy code) ([1]; safener 100 g/ha): 2

SMILES: COC(=O)COc1nc(-c2ccc(F)cc2F)n(-c2ccc(Cl)cc2F)n1 [I.40-49]
- Efficacy of the safener (efficacy code) [2, 5]: 4
- Efficacy of the safener (efficacy code) [2, 6]: 4
- Efficacy of the safener (efficacy code) ([1]; safener 100 g/ha): 4
- Efficacy of the safener (efficacy code) ([1]; safener 500 g/ha): 4

SMILES: COC(=O)COc1nc(-c2c(F)cccc2F)n(-c2ccc(Cl)cc2F)n1 [I.55-49]
- Efficacy of the safener (efficacy code) [2, 5]: 2
- Efficacy of the safener (efficacy code) [2, 6]: 2
- Efficacy of the safener (efficacy code) ([1]; safener 100 g/ha): 2
- Efficacy of the safener (efficacy code) ([1]; safener 500 g/ha): 2

SMILES: O=C(O)COc1nc(-c2ccc(Cl)cc2Cl)n(-c2ccc(Cl)cc2F)n1 [I.45-49, {[1-(4-Chloro-2-fluorophenyl)-5-(2,4-dichlorophenyl)-1H-1,2,4-triazol-3-yl]oxy}acetic acid]
- Absolute reduction in damage (difference) ([3]; safener 125 g a.i./ha): 20%
- Herbicide damage with compound of the formula (I) (%) ([3]; safener 125 g a.i./ha): 40%
- Absolute reduction in damage (difference) ([3]; safener 500 g a.i./ha): 30%
- Herbicide damage with compound of the formula (I) (%) ([3]; safener 500 g a.i./ha): 30%
- Absolute reduction in herbicide damage (damage without safener minus damage with safener) ([4]; safener 125 g a.i./ha): 20%
- Herbicide damage with compound of the formula (I) ([4]; safener 125 g a.i./ha): 43%
- Absolute reduction in herbicide damage (damage without safener minus damage with safener) ([4]; safener 500 g a.i./ha): 23%
- Herbicide damage with compound of the formula (I) ([4]; safener 500 g a.i./ha): 40%

SMILES: O=C(O)COc1nc(-c2ccccc2F)n(-c2ccc(Cl)cc2F)n1 [I.6-49]
- Absolute reduction in damage (difference) ([3]; safener 250 g a.i./ha): 20%
- Herbicide damage with compound of the formula (I) (%) ([3]; safener 250 g a.i./ha): 40%
- Absolute reduction in damage (difference) ([3]; safener 1000 g a.i./ha): 30%
- Herbicide damage with compound of the formula (I) (%) ([3]; safener 1000 g a.i./ha): 30%
- Absolute reduction in herbicide damage (damage without safener minus damage with safener) ([4]; safener 250 g/ha): 30%
- Herbicide damage with compound of the formula (I) ([4]; safener 250 g/ha): 27%

SMILES: CCOC(=O)COc1nc(-c2ccccc2F)n(-c2ccc(Cl)cc2F)n1 [I.5-49]
- Absolute reduction in damage (difference) ([3]; safener 125 g a.i./ha): 50%
- Herbicide damage with compound of the formula (I) (%) ([3]; safener 125 g a.i./ha): 23%
- Absolute reduction in damage (difference) ([3]; safener 500 g a.i./ha): 56%
- Herbicide damage with compound of the formula (I) (%) ([3]; safener 500 g a.i./ha): 17%
- Absolute reduction in herbicide damage (damage without safener minus damage with safener) ([4]; safener 125 g a.i./ha): 54%
- Herbicide damage with compound of the formula (I) ([4]; safener 125 g a.i./ha): 13%

SMILES: O=C(O)COc1nc(-c2ccc(Cl)cc2)n(-c2ccc(F)cc2F)n1 [I.21-38]
- Absolute reduction in damage (difference) ([3]; safener 250 g a.i./ha): 30%
- Herbicide damage with compound of the formula (I) (%) ([3]; safener 250 g a.i./ha): 30%
- Absolute reduction in damage (difference) ([3]; safener 1000 g a.i./ha): 40%
- Herbicide damage with compound of the formula (I) (%) ([3]; safener 1000 g a.i./ha): 20%
- Absolute reduction in herbicide damage (damage without safener minus damage with safener) ([4]; safener 1000 g/ha): 23%
- Herbicide damage with compound of the formula (I) ([4]; safener 1000 g/ha): 20%
